Laboratory results taken from patent US6642227B2, “Inhibitors of c-Jun N-terminal kinases (JNK) and other protein kinases” (Vertex Pharmaceuticals Incorporated, priority 2001, dated 2003).

What follows are molecules tested against T1, activated JNK3 (Homo sapiens, UniProt P53779) (assay: JNK inhibition assay (spectrophotometric coupled-enzyme assay)). Conditions: activated JNK3 10 nM, 10 μM ATP, 30° C.; read-out: JNK3 Activity (Ki class A-C).
T1 construct: One such construct encodes amino acid residues Ser40-Glu402 of JNK3α1 and is preceded by Met and Gly residues; Met-Gly dipeptide (initiator Met plus Gly added for the NcoI site) (N); made in house; host or cells: E. coli BL21 (DE3)
T1 sequence (P53779 40-402): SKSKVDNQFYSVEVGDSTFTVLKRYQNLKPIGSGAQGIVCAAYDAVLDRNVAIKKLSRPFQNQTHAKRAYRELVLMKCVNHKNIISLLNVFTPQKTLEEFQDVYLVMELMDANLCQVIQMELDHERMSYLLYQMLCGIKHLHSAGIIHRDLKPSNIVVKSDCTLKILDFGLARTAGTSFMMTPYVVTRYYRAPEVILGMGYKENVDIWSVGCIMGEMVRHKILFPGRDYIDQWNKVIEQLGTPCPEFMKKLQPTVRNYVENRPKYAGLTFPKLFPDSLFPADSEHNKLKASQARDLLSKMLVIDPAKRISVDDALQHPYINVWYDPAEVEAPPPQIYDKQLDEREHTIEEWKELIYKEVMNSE
Assay type: biochemical
Description: A BLAST search of the EST database using the published JNK3α1 cDNA as a query identified an EST clone (#632588) that contained the entire coding sequence for human JNK3α1. Polymerase chain reactions (PCR) using pfu polymerase (Strategene) were used to introduce restriction sites into the cDNA for cloning into the pET-15B expression vector at the NcoI and BamHI sites. The protein was expressed in E. coli. Due to the poor solubility of the expressed full-length protein (Met 1-Gln 422), an N-terminally truncated protein starting at Ser residue at position 40 (Ser 40) was produced. This truncation corresponds to Ser 2 of JNK1 and JNK2 proteins, and is preceded by a methionine (initiation) and a glycine residue. The glycine residue was added in order to introduce an NcoI site for cloning into the expression vector. In addition, systematic C-terminal truncations were performed by PCR to identify a construct that give rise to diffraction-quality crystals. One such construct encodes amino acid residues Ser40-Glu402 of JNK3α1 and is preceded by Met and Gly residues.
The construct was prepared by PCR using deoxyoligonucleotides: 5′ […] 3′ (forward primer with initiation codon underlined)(SEQ ID NO:1) and 5′ […] 3′ (reverse primer with stop codon underlined)(SEQ ID NO:2) as primers and was confirmed by DNA sequencing.
E.coli strain BL21 (DE3) (Novagen) was transformed with the JNK3 expression construct and grown at 30° C. in LB supplemented with 100 μg/ml carbenicillin in shaker flasks until the cells were in log phase (OD600˜0.8). Isopropylthio-β-D-[…] (IPTG) was added to a final concentration of 0.8 mM and the cells were harvested 2 hours later by centrifugation.
E. coli cell paste containing JNK3 was resuspended in 10 volumes/g lysis buffer (50 mM HEPES, pH 7.2, containing 10% glycerol (v/v), 100 mM NaCl, 2 mM DTT, 0.1 mM PMSF, 2 μg/ml Pepstatin, lug/ml each of E-64 and Leupeptin). Cells were lysed on ice using a microfluidizer and centrifuged at 100,000×g for 30 min at 4° C. The 100,000×g supernatant was diluted 1:5 with Buffer A (20 mM HEPES, pH 7.0, 10% glycerol (v/v), 2 mM DTT) and purified by SP-Sepharose (Pharmacia) cation-exchange chromatography (column dimensions: 2.6×20 cm) at 4° C. The resin was washed with 5 column volumes of Buffer A, followed by 5 column volumes of Buffer A containing 50 mM NaCl. Bound JNK3 was eluted with a 7.5 column volume linear gradient of 50-300 mM NaCl. JNK3 eluted between 150-200 mM NaCl.
Five mg of JNK3 was diluted to 0.5 mg/ml in 50 mM HEPES buffer, pH 7.5, containing 100 mM NaCl, 5 mM DTT, 20 mM MgCl2 and 1 mM ATP. GST-MKK7(DD) was added at a molar ratio of 1:2.5 GST-MKK7:JNK3. After incubation for 30 minutes at 25° C., the reaction mixture was concentrated 5-fold by ultrafiltration in a Centriprep-30 (Amicon, Beverly, Mass.), diluted to 10 ml and an additional 1 mM ATP added. This procedure was repeated three times to remove ADP and replenish ATP. The final addition of ATP was 5 mM and the mixture incubated overnight at 4° C.
The activated JNK3/GST-MKK7(DD) reaction mixture was exchanged into 50 mM HEPES buffer, pH 7.5, containing 5 mM DTT and 5% glycerol (w/v) by dialysis or ultrafiltration. The reaction mixture was adjusted to 1.1 M potassium phosphate, pH 7.5, and purified by hydrophobic interaction chromatography (at 25° C.) using a Rainin Hydropore column. […] Activated JNK3 (i.e. doubly phosphorylated JNK3) was stored at −70° C. at 0.25-1 mg/ml.
Compounds were assayed for the inhibition of JNK3 by a spectrophotometric coupled-enzyme assay. In this assay, a fixed concentration of activated JNK3 (10 nM) was incubated with various concentrations of a potential inhibitor dissolved in DMSO for 10 minutes at 30° C. in a buffer containing 0.1 M HEPES buffer, pH 7.5, containing 10 mM MgCl2, 2.5 mM phosphoenolpyruvate, 200 μM NADH, 150 μg/mL pyruvate kinase, 50 μg/mL lactate dehydrogenase, and 200 μM EGF receptor peptide. […]

| SMILES | Ki [nM] |
| --- | --- |
| CSc1sc(-c2ccnc(Nc3ccccc3)n2)c(-c2ccc(Cl)cc2)c1C#N [IIa-10, 2-Methylsulfanyl-5-(2-phenylamino-pyrimidin-4-yl)-4-(4-chloro-phenyl)-thiophene-3-carbonitrile] | < 100 |
| CCOc1sc(-c2ccnc(Nc3ccccc3)n2)c(-c2ccc(Cl)cc2)c1C#N [IIa-11, 2-Ethoxy-5-(2-phenylamino-pyrimidin-4-yl)-4-(4-chloro-phenyl)-thiophene-3-carbonitrile] | < 100 |
| CSc1sc(-c2ccnc(Nc3ccccc3)n2)c(-c2ccc(C)cc2)c1C#N [IIa-14, 2-Methylsulfanyl-5-(2-phenylamino-pyrimidin-4-yl)-4-p-tolyl-thiophene-3-carbonitrile] | < 100 |
| CCOc1sc(-c2ccnc(Nc3ccccc3)n2)c(-c2ccc(C)cc2)c1C#N [IIa-15, 2-Ethoxy-5-(2-phenylamino-pyrimidin-4-yl)-4-p-tolyl-thiophene-3-carbonitrile] | < 100 |
